According to patent EP4610269A1, “UROKINASE PLASMINOGEN ACTIVATOR SURFACE RECEPTOR (UPAR) LIGANDS FOR DIAGNOSTIC OR THERAPEUTIC USE” (3B Pharmaceuticals GmbH, priority 2024, dated 2025):
Read-outs that look alike come from different tables or passages of the source. Where a SMILES comes first, the peptide text is derived from it. Bridges are numbered along the chain shown (N, C = ends). Side-chain parts run from the residue outwards. [ ]: non-standard residue; d: D form. The star is where a group is joined. GdDOTA = Gd(III) DOTA conjugate, O=C([O-])CN1CCN(CC(=O)[O-])CCN(CC(=O)*)CCN(CC(=O)[O-])CC1.[Gd+3]; DOTA(Lu) = O=C1CN2CCN3CCN(CC(=O)*)CCN(CC2)CC(=O)[O][Lu]([O]1)[O]C(=O)C3; DOTA = O=C(O)CN1CCN(CC(=O)O)CCN(CC(=O)*)CCN(CC(=O)O)CC1; PEG12 = NCCOCCOCCOCCOCCOCCOCCOCCOCCOCCOCCOCCOCCC(=O)O; Hyp = O=C(O)[C@@H]1C[C@@H](O)CN1; hArg = N=C(N)NCCCC[C@H](N)C(=O)O; Pentanoyl(4-Me) = CC(C)CCC(=O)*; Cit = NC(=O)NCCC[C@H](N)C(=O)O; Butoxycarbonyl = CCCCOC(=O)*; Api = NC1(C(=O)O)CCNCC1; Nva = CCC[C@H](N)C(=O)O; Hexanoyl = CCCCCC(=O)*; Pentanoyl = CCCCC(=O)*; AEEA = NCCOCCOCC(=O)O

Key:
[1] = Plasma stability assay (mouse plasma); type: in vitro ADME; conditions: 37°C, LC-MS quantification; for remaining at 6 h, 9.8 µM: mouse plasma (sodium citrate 3.7%), read-out: % intact compound remaining after 6h incubation Mouse plasma; for % intact compound remaining after 6h incubation Mouse plasma: mouse plasma (sodium citrate)
Experimental: In order to determine the stability of selected compounds of the invention in human and mouse plasma, a plasma stability assay was carried out. Such plasma stability assay measures degradation of compounds of the present invention in blood plasma. This is an important characteristic of a compound as compounds, with the exception of pro-drugs, which rapidly degrade in plasma, generally show poor in vivo efficacy. […] The stability is sufficient for the diagnostic, therapeutic and theragnostic use of these compounds according to the present invention.
The plasma stability samples were prepared by spiking 50 µl plasma aliquots (all sodium citrate 3.7%) with 1 µl of a 0.5 mM compound stock solution in DMSO. After vortexing the samples were incubated in a Thermomixer at 37°C for 0 and 6 hours. After incubation the samples were stored on ice until further treatment. All samples were prepared in duplicates.
A suitable internal standard was added to each sample (1 µl of a 0.5 mM stock solution in DMSO). Protein precipitation was performed using two different methods depending on the compound conditions as indicated in Table 13. • A) 250 µl of acetonitrile containing 1% trifluoroacetic acid was added. After incubation at room temperature for 30 min the precipitate was separated by centrifugation and 150 µl of the supernatant was diluted with 150 µl of 1% aqueous formic acid. • B) 150 µl of a zinc sulphate precipitation agent containing 78% 0.1 M zinc sulphate and 22% acetonitrile was added. After incubation at room temperature for 30 min the precipitate was separated by centrifugation. To 100 µl of the supernatant 10 µl of 1% formic acid was added followed by further incubation at 60°C for 10 min to complete the formation of the zinc chelate, if the compound contains a free DOTA moiety.
The determination of the analyte in the clean sample solutions was performed on an Agilent 1290 UHPLC system coupled to an Agilent 6530 Q-TOF mass spectrometer. The chromatographic separation was carried out on a Phenomenex BioZen XB-C18 HPLC column (50 x 2 mm, 1.7 µm particle size).
Two different elution gradients were applied using a mixture of 0.1% formic acid in water as eluent A and acetonitrile as eluent B: • A) 2% B to 41% in 7 min, 800 µl/min, 40°C. • B) 5% B to 50% B in 6 min, 800 µL/min, 40°C.
Mass spectrometric detection was performed in positive ion ESI mode by scanning the mass range from m/z 50 to 3000 with a sampling rate of 2 / sec.
From the mass spectrometric raw data the ion currents for the double or triple charged monoisotopic signal was extracted for both, the compound and the internal standard.
Quantitation was performed by external matrix calibration with internal standard using the integrated analyte signals.
Additionally, recovery was determined by spiking a pure plasma sample that only contained the internal standard after treatment with a certain amount of the compound.
Carry-over was evaluated by analysis of a blank sample (20% acetonitrile) after the highest calibration sample.
The result is stated as "% intact compound remaining after 6 h incubation" and means that from the amount of material at the start of the experiment the stated percentage is detected as unchanged material at the end of the experiment by LC-MS quantification. Since all compounds are more than 50% intact after 6 h they are considered as stable enough for diagnostic and therapeutic applications. Table 13: Results of the plasma stability assay

[2] = target: T1, uPAR-expressing HEC-265 human endometrial adenocarcinoma cells (Homo sapiens, UniProt Q03405); assay: Competitive FACS binding assay; conditions: pIC50 category of FACS binding
T1 construct: Cell surface uPAR-expressing HEC-265 human endometrial adenocarcinoma cells; host or cells: HEC-265
In short: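 Competitive displacement of a 10 nM biotinylated peptide from HEC-265 cells (1 h, 4 °C, PBS/1% BSA), detected via APC-streptavidin by flow cytometry. pIC50 from four-parameter logistic fit of median fluorescence versus concentration.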

human uPAR (uPAR-Fc) = target: T2, human uPAR (uPAR-Fc) (Homo sapiens, UniProt Q03405); assay: Surface plasmon resonance (SPR) assay, single cycle kinetics; type: binding; conditions: pKD category for uPAR SPR activity assay, uPAR-Fc on Protein A-Chip, 25°C, read-out: pKD CAT (converted)
T2 construct: comprising amino acids Leu23-Arg303 according to UniProt entry Q03405.1; purchased R&D Systems 10378-UK-100
In short: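 uPAR-Fc (Leu23-Arg303 extracellular domains, human IgG1 Fc) captured on Protein A chip to ~2000 RU; single-cycle kinetics at 25°C in HEPES running buffer pH 7.4 with 0.1% DMSO. KD from double-referenced sensorgrams fitted to 1:1 Langmuir model, reported as pKD.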

T1 sequence (Q03405 23-335): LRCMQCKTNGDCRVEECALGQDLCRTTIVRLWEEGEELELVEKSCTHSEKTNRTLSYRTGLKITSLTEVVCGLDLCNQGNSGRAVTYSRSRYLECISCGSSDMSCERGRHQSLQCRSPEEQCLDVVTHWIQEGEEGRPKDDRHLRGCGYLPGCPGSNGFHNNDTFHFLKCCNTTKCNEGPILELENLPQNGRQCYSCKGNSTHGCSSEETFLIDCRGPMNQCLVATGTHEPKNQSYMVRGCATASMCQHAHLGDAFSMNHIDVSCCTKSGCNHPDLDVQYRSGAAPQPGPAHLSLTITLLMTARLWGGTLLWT
T2 sequence (Q03405 23-303): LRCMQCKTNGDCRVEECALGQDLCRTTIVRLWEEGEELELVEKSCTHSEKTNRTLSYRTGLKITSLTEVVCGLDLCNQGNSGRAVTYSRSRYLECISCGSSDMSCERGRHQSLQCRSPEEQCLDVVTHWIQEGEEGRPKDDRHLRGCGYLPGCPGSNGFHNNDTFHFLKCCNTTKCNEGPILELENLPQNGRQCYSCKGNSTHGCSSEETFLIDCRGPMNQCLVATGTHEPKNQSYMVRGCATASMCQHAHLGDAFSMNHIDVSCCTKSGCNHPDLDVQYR

Molecule	remaining at 6 h, 9.8 µM [1] [%]	IC50 [2] [nM]	Kd (human uPAR (uPAR-Fc)) [nM]	Kd (human uPAR (uPAR-Fc); single cycle kinetics) [nM]	% intact compound remaining after 6h incubation Mouse plasma [1] [%]	pIC50 CAT [2]
CC[C@H](C)[C@@H]1NC(=O)[C@@H](C)NC(=O)[C@@H]2CCCN2C(=O)[C@H](Cc2ccccc2)NC(=O)[C@H](Cc2ccc(O)cc2)NC(=O)[C@H](CCC(N)=O)NC(=O)[C@@H](C)NC(=O)[C@@H](NC(=O)[C@H](CC(C)C)NC(=O)COCCOCCNC(=O)CN2CCN(CC(=O)O)CCN(CC(=O)O)CCN(CC(=O)O)CC2)CSSC[C@@H](C(N)=O)NC(=O)[C@H](CC(C)C)NC1=O [UPAR-216, DOTA-O2Oc-Leu-[Cys-ala-Gln-Tyr-Phe-Pro-ala-Ile-Leu-Cys]-NH2] ({DOTA-AEEA}-LC[dA]QYFP[dA]ILC-NH2; disulfide 2-11)	84	≥ 126	> 100			
CC[C@H](C)[C@@H]1NC(=O)[C@@H](C)NC(=O)[C@@H]2CCCN2C(=O)[C@H](Cc2ccccc2)NC(=O)[C@H](Cc2ccc(O)cc2)NC(=O)[C@H](CCC(N)=O)NC(=O)[C@H](CCCNC(N)=O)NC(=O)[C@@H](NC(=O)[C@H](CC(C)C)NC(C)=O)CSSC[C@@H](C(N)=O)NC(=O)[C@H](CC(C)C)NC1=O [UPAR-418, Ac-Leu-[Cys-Cit-Gln-Tyr-Phe-Pro-ala-Ile-Leu-Cys]-NH2] (Ac-LC[Cit]QYFP[dA]ILC-NH2; disulfide 2-11)	85	≤ 10		< 1.58		
iHex-[Cys-Arg-Gln-Tyr-Phe-Pro-Apc(GdDOTA)-Ile-Leu-Cys]-NH2 ({Pentanoyl(4-Me)}-CRQYFP[Api](GdDOTA)ILC-NH2; disulfide 1-10 (inferred); not fully specified) [UPAR-457]					64	A (pIC50 values ≥8.0)
CC[C@H](C)[C@@H]1NC(=O)[C@@H](C)NC(=O)[C@@H]2CCCN2C(=O)[C@H](Cc2ccccc2)NC(=O)[C@H](Cc2ccc(O)cc2)NC(=O)[C@H](CCCCNC(=O)CN2CCN(CC(=O)O)CCN(CC(=O)O)CCN(CC(=O)O)CC2)NC(=O)[C@H](CCCNC(=N)N)NC(=O)[C@@H](NC(=O)CCC(C)C)CSSC[C@@H](C(N)=O)NC(=O)[C@H](CC(C)C)NC1=O [UPAR-176, iHex-[Cys-Arg-Lys(DOTA)-Tyr-Phe-Pro-ala-Ile-Leu-Cys]-NH2] ({Pentanoyl(4-Me)}-CRK(DOTA)YFP[dA]ILC-NH2; disulfide 1-10)	57	≤ 10	< 1.58			
CCCCC(=O)N[C@H]1CSSC[C@@H](C(N)=O)NC(=O)[C@H](CCC)NC(=O)[C@H]([C@@H](C)CC)NC(=O)[C@@H]2C[C@@H](O)CN2C(=O)[C@@H]2CCCN2C(=O)[C@H](Cc2ccccc2)NC(=O)[C@H](Cc2ccc(O)cc2)NC(=O)[C@H](CCCCNC(=O)CCOCCOCCOCCOCCOCCOCCOCCOCCOCCOCCOCCOCCNC(=O)CN2CCN(CC(=O)O)CCN(CC(=O)O)CCN(CC(=O)O)CC2)NC(=O)[C@H](CCCNC(N)=O)NC1=O [UPAR-200, Pent-[Cys-Cit-Lys(DOTA-PEG12)-Tyr-Phe-Pro-Hyp-Ile-Nva-Cys]-NHz] (Pentanoyl-C[Cit]K([PEG12-DOTA])YFP[Hyp]I[Nva]C-NH2; disulfide 1-10)	> 95	≤ 10	< 1.58			
CCCCOC(=O)N[C@H]1CSSC[C@@H](C(N)=O)NC(=O)[C@H](CCC)NC(=O)[C@H]([C@@H](C)CC)NC(=O)[C@@H]2C[C@@H](O)CN2C(=O)[C@@H]2CCCN2C(=O)[C@H](Cc2ccccc2)NC(=O)[C@H](Cc2ccc(O)cc2)NC(=O)[C@H](CCCCNC(=O)CN2CCN(CC(=O)O)CCN(CC(=O)O)CCN(CC(=O)O)CC2)NC(=O)[C@H](CCCNC(N)=O)NC1=O [UPAR-275, Butoc-[Cys-Cit-Lys(DOTA)-Tyr-Phe-Pro-Hyp-Ile-Nva-Cys]-NH2] (Butoxycarbonyl-C[Cit]K(DOTA)YFP[Hyp]I[Nva]C-NH2; disulfide 1-10)	70	≤ 10	< 1.58			
CCCCCC(=O)N[C@@H](CC(=O)O)C(=O)N[C@@H](CC(C)C)C(=O)N[C@H]1CSSC[C@@H](C(N)=O)NC(=O)[C@H](CC(C)C)NC(=O)[C@H]([C@@H](C)CC)NC(=O)[C@H](CCCCNC(=O)CN2CCN(CC(=O)O)CCN(CC(=O)O)CCN(CC(=O)O)CC2)NC(=O)[C@@H]2CCCN2C(=O)[C@H](Cc2ccccc2)NC(=O)[C@H](Cc2ccc(O)cc2)NC(=O)[C@H](CCSC)NC(=O)[C@H](CCCNC(=N)N)NC1=O [UPAR-351, Hex-Asp-Leu-[Cys-Arg-Met-Tyr-Phe-Pro-Lys(DOTA)-Ile-Leu-Cys]-NH2] (Hexanoyl-DLCRMYFPK(DOTA)ILC-NH2; disulfide 3-12)	> 95	≤ 10		< 1.58		
iHex-[Cys-Lys(LuDOTA)-Gln-Tyr-Phe-Pro-ala-Ile-Leu-Cys]-NH2 ({Pentanoyl(4-Me)}-CK(DOTA(Lu))QYFP[dA]ILC-NH2; disulfide 1-10 (inferred); not fully specified) [UPAR-408]					75	A (pIC50 values ≥8.0)
CCCCCC(=O)N[C@@H](CC(=O)O)C(=O)N[C@@H](CC(C)C)C(=O)N[C@H]1CSSC[C@@H](C(N)=O)NC(=O)[C@H](CC(C)C)NC(=O)[C@H]([C@@H](C)CC)NC(=O)[C@H](C)NC(=O)[C@@H]2CCCN2C(=O)[C@H](Cc2ccccc2)NC(=O)[C@H](Cc2ccc(O)cc2)NC(=O)[C@H](CCCCNC(=O)CN2CCN(CC(=O)O)CCN(CC(=O)O)CCN(CC(=O)O)CC2)NC(=O)[C@H](CCCNC(=N)N)NC1=O [UPAR-427, Hex-Asp-Leu-[Cys-Arg-Lys(DOTA)-Tyr-Phe-Pro-Ala-Ile-Leu-Cys]-NH2] (Hexanoyl-DLCRK(DOTA)YFPAILC-NH2; disulfide 3-12)	> 95	≤ 10		< 1.58		
CCCCC(=O)N[C@H]1CSSC[C@@H](C(N)=O)NC(=O)[C@H](CCC)NC(=O)[C@H]([C@@H](C)CC)NC(=O)[C@@H]2C[C@@H](O)CN2C(=O)[C@@H]2CCCN2C(=O)[C@H](Cc2ccccc2)NC(=O)[C@H](Cc2ccc(O)cc2)NC(=O)[C@H](CCCCNC(=O)CN2CCN(CC(=O)O)CCN(CC(=O)O)CCN(CC(=O)O)CC2)NC(=O)[C@H](CCCCNC(=N)N)NC1=O [UPAR-278, Pent-[Cys-Har-Lys(DOTA)-Tyr-Phe-Pro-Hyp-Ile-Nva-Cys]-NH2] (Pentanoyl-C[hArg]K(DOTA)YFP[Hyp]I[Nva]C-NH2; disulfide 1-10)	87	≤ 10	< 1.58			
CCCCCC(=O)N[C@@H](CC(=O)O)C(=O)N[C@@H](CC(C)C)C(=O)N[C@H]1CSSC[C@@H](C(N)=O)NC(=O)[C@H](CC(C)C)NC(=O)[C@H]([C@@H](C)CC)NC(=O)[C@H](C)NC(=O)[C@@H]2CCCN2C(=O)[C@H](Cc2ccccc2)NC(=O)[C@H](Cc2ccc(O)cc2)NC(=O)[C@H](CCSC)NC(=O)[C@H](CCCNC(=N)N)NC1=O [UPAR-363, Hex-Asp-Leu-[Cys-Arg-Met-Tyr-Phe-Pro-Ala-Ile-Leu-Cys]-NH2] (Hexanoyl-DLCRMYFPAILC-NH2; disulfide 3-12)		≤ 10		< 1.58		
